Experiments:
[1] = % SPP100 recovered of receiver rat following duodenal infusion of radioactivity through bile from donor rat treated with single intravenous administration of 10 mg.Kg-1 [14C] aliskiren hemifumarate; assay type: ADME, organism-based, HAN:WIST(SPF); details: in vivo
CYP1A2 = molecular target: T1, CYP1A2 (Homo sapiens, UniProt P05177); test: Inhibitory activity of 20 uM SPP100 on 489 Pmoles of cDNA-derived CYP1A2 enzyme in microsome prepared from human lymphoblastoid cell line; assay type: ADME, microsomes; set-up: conc 20 uM, interact cpd conc 50 uM; details: probe phenacetin
T1 sequence (P05177 whole entry): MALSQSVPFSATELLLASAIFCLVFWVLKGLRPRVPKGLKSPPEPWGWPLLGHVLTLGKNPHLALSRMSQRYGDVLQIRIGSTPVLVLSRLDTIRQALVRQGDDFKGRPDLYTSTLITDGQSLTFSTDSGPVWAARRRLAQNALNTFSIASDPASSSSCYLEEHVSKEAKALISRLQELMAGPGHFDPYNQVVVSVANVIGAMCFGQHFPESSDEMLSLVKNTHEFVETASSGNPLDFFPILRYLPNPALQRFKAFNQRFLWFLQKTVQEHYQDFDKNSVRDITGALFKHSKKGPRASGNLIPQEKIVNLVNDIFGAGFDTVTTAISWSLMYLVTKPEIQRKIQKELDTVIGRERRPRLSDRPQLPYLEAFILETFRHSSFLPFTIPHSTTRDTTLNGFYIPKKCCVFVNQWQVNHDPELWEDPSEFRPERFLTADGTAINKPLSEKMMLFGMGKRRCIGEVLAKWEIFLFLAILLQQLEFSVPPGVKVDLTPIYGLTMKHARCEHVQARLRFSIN

[2] = Oral clearance of SPP100 following single oral dose of SPP100 75 mg capsule studied in healthy human; assay type: ADME, organism-based; details: plasma
[3] = % of radioactivity recovered as aliskiren in plasma following intravenous administration of [14C] aliskiren hemifumarate at 10 mg.Kg-1 level in rat; assay type: ADME, organism-based, Albino HAN:WIST; details: in vivo
Cytochrome P450 4A11 = molecular target: T2, Cytochrome P450 4A11 (Homo sapiens, UniProt Q02928); test: Metabolic clearance (ul.min.nmol-1 CYP) of aliskiren hemifumarate for CYP4A11 was determined in human liver microsome incubated with [14C]SPP100 hemifumarate; assay type: ADME; details: microsomes
T2 sequence (Q02928 whole entry): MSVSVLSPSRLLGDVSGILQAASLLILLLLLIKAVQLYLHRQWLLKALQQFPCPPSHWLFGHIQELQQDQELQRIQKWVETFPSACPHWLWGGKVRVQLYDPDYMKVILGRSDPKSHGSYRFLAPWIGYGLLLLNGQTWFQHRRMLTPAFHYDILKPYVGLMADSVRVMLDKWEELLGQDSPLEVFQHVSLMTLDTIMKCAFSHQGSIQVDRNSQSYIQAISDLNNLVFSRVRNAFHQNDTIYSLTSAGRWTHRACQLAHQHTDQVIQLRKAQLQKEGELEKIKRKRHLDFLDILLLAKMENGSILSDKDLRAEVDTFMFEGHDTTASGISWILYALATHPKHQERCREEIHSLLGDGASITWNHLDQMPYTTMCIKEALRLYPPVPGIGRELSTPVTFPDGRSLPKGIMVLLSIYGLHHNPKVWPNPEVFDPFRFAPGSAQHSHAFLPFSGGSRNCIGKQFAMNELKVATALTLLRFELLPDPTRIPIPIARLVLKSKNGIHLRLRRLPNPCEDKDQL

[4] = Excretion of radioactivity (0-96h) in urine following single oral dose of 100 mg.Kg-1 [14C] aliskiren hemifumarate in rat; assay type: ADME, organism-based, Albino HAN:WIST; details: in vivo
[5] = % of radioactivity (48h) recovered in urine of receiver rat following duodenal infusion of radioactivity through bile from donor rat treated with single intravenous administration of 10 mg.Kg-1 [14C] aliskiren hemifumarate; assay type: ADME, organism-based, HAN:WIST(SPF); details: in vivo
[6] = Total excretion (0-96h) of radioactivity in urine, faeces and cage wash following single intravenous dose of 10 mg.Kg-1 [14C] aliskiren hemifumarate in mouse; assay type: ADME, organism-based, Urine/Feces; details: rat, in vivo
[7] = Biliary elimination of aliskiren following single intravenous dose of [14C] aliskiren hemifumarate at 10 mg.Kg-1 level in mouse; assay type: ADME, organism-based, TgRasH2, Bile; details: in vivo
[8] = Excretion of radioactivity (48-72h) in faeces following single oral dose of 100 mg.Kg-1 [14C] aliskiren hemifumarate in rat; assay type: ADME, organism-based, Albino HAN:WIST, Feces; details: in vivo
[9] = Cmax (0-168h) of total radioactivity following single intravenous administration of [14C] aliskiren hemifumarate at 1 mg.Kg-1 level in marmoset; assay type: ADME, organism-based, Callithrix jacchus, Plasma; details: in vivo
[10] = Excretion of radioactivity (0-96h) in faeces following single intravenous dose of 10 mg.Kg-1 [14C] aliskiren hemifumarate in rat; assay type: ADME, organism-based, Albino HAN:WIST, Feces; details: in vivo
[11] = Total excretion of radioactivity following oral administration of [14C] aliskiren hemifumarate at 3 mg.Kg-1 level in marmoset; assay type: ADME, organism-based, Callithrix jacchus, Urine/Feces; details: in vivo
Cytochrome P450 3A4 = Cytochrome P450 3A4 (Homo sapiens, UniProt P08684); test: Metabolic clearance (ul.min.nmol-1 CYP) of aliskiren hemifumarate for CYP3A4 was determined in human liver microsome incubated with [14C]SPP100 hemifumarate; assay type: ADME; details: microsomes
[12] = Cmax of radioactivity following repeated oral administration of [14C] aliskiren hemifumarate at 100 mg.Kg-1 level studied after 2h of dosing on day 1 in rat; assay type: ADME, organism-based, Albino HAN:WIST; details: in vivo, read-out: Cmax(1)
[13] = Effect of 2 week oral dosing of aliskiren hemifumarate at 10 mg.Kg-1 level on blood urea nitrogen level in female Callithrix jacchus; assay type: toxicity, organism-based, Plasma; details: marmoset, 336 h
[14] = Effect of 2 week oral dosing of aliskiren hemifumarate at 50 mg.Kg-1 level on blood urea nitrogen level in female Callithrix jacchus; assay type: toxicity, organism-based, Plasma; details: marmoset, 336 h
[15] = AUC of aliskiren hemifumarate following 8 day once-daily dosing of SPP100B oral solution at 80 mg level studied on day 8 in men; assay type: ADME, organism-based; details: male, human, plasma
[16] = AUC/dose (0-96h) of unlabeled aliskiren hemifumarate following intravenous administration of aliskiren hemifumarate at 10 mg.Kg-1 level in rat; assay type: ADME, organism-based, Albino HAN:WIST, Plasma; details: in vivo
[17] = Effect of 4 week oral dietary dosing of aliskiren hemifumarate at 500 mg.Kg-1 level on spermatogenesis in male mouse; assay type: toxicity, organism-based, CB6F1-TGrasH2, Testis; details: in vivo, 672 h
[18] = AUCspec of aliskiren hemifumarate following 2 week oral dosing of aliskiren hemifumarate at 100 mg.Kg-1 level studied on day 1 in female Callithrix jacchus; assay type: ADME, organism-based, Plasma; details: marmoset, in vivo, 336 h
[19] = Cmax of aliskiren hemifumarate following single dosing of SPP100B oral solution at 640 mg level studied on day 1 in men; assay type: ADME, organism-based; details: male, human, plasma
[20] = AUC of unlabeled aliskiren hemifumarate following single oral dose of aliskiren hemifumarate at 500 mg.Kg-1 level in mouse; assay type: ADME, organism-based; details: TgRasH2, mouse, plasma
[21] = Effect of 4 week oral dietary dosing of aliskiren hemifumarate at 1500 mg.Kg-1 level on density of uterine gland in female mouse; assay type: toxicity, organism-based, CB6F1-TGrasH2, Endometrial gland; details: in vivo, 672 h
[22] = Tmax of aliskiren hemifumarate following 4 week oral dietary dosing of aliskiren hemifumarate at 2000 mg.Kg-1 level in female mouse; assay type: ADME, organism-based; details: CB6F1-TGrasH2, mouse, in vivo
[23] = Cmax of aliskiren hemifumarate following 4 week oral dietary dosing of aliskiren hemifumarate at 1000 mg.Kg-1 level in female mouse; assay type: ADME, organism-based; details: CB6F1-TGrasH2, mouse, in vivo
[24] = Cmax of aliskiren hemifumarate following 4 week oral dietary dosing of aliskiren hemifumarate at 500 mg.Kg-1 level in female mouse; assay type: ADME, organism-based; details: CB6F1-TGrasH2, mouse, in vivo

Sequence of Cytochrome P450 3A4 (P08684 whole entry): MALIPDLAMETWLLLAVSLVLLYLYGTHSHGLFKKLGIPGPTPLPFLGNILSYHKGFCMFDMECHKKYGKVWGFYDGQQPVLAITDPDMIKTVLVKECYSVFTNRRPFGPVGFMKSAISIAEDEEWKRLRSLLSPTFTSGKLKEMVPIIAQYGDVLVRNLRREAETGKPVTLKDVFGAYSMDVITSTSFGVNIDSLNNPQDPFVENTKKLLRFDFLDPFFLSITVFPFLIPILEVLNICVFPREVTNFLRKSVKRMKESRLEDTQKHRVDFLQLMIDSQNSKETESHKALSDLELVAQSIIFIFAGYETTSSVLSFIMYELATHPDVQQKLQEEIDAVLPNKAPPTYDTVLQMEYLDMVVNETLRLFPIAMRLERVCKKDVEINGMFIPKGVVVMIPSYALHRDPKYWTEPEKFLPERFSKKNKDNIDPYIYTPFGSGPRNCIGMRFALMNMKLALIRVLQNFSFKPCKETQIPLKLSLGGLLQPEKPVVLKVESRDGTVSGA

For `COCCCOc1cc(C[C@@H](C[C@H](N)[C@@H](O)C[C@H](C(=O)NCC(C)(C)C(N)=O)C(C)C)C(C)C)ccc1OC`, the Compound recovery [1] was 60.4%, the inhibition at 20 µM (CYP1A2) was 5% and the CL/F [2] was 4900 mL/min. The Compound recovery [3] was over 40%.

Compound `COCCCOc1cc(C[C@@H](C[C@H](N)[C@@H](O)C[C@H](C(=O)NCC([14CH3])([14CH3])C(N)=O)C(C)C)C(C)C)ccc1OC.O=C(O)/C=C/C(=O)O` has a CL (Cytochrome P450 4A11) of 4.9 µL·min/nmol, a Radiolabel recovery [4] of 0.69% and a Radiolabel recovery [5] of 0.6%. For the same compound, the Radiolabel recovery [6] was 96.2%, the Radiolabel recovery [7] was “OUTCOME = Observed, VALUE = Elimination of aliskiren occurred mainly via the biliary or faecal route” and the Radiolabel recovery [8] was 0.36%. The Cmax [9] was 11.4 µM, the Radiolabel recovery [10] was 90% and the Radiolabel recovery [11] was 104%. It also gave a CL (Cytochrome P450 3A4) of 1013.1 µL·min/nmol and a Cmax [12] of 1.09 µM.

`COCCCOc1cc(C[C@@H](C[C@H](N)[C@@H](O)C[C@H](C(=O)NCC(C)(C)C(N)=O)C(C)C)C(C)C)ccc1OC.COCCCOc1cc(C[C@@H](C[C@H](N)[C@@H](O)C[C@H](C(=O)NCC(C)(C)C(N)=O)C(C)C)C(C)C)ccc1OC.O=C(O)/C=C/C(=O)O` [ALISKIREN FUMARATE] showed a BUN_CHANGE_BY [13] of 69%, a BUN_CHANGE_BY [14] of 274% and an AUC at 192 h [15] of 137 ng·h/mL. For the same compound, the AUC normalised [16] was 1.26 (umol.h/L)/(mg/kg), the Change in spermatogenesis [17] was “OUTCOME = No abnormalities. No animals died during the study” and the AUC normalised [18] was 0.84 ((ug.h.ml-1)/(mg/kg). For the same compound, the Cmax [19] was 146 ng/mL, the AUC [20] was 7.04 µM·h and the “Change in density of uterine gland” value [21] was “OUTCOME = Decreased. No animals died during the study”. It also gave a Tmax [22] of 30 min, a Cmax [23] of 167 ng/mL and a Cmax [24] of 63.8 ng/mL.

— ChEMBL document CHEMBL3508693 (2016)
